# Target: T1, KRAS G12D (Homo sapiens, UniProt P01116, G12D)
# T1 construct: made in house; host or cells: E. coli, e.g. BL21 (DE3)
# Assay: HTRF KRAS-SOS1 interaction assay, KRAS G12D
# Format: biochemical
# Settings: binned ≤2 μM / >2 μM, read-out: Inhibition of KRAS G12D (IC50)
# Source text: This assay can be also used to assess a selective inhibition or reduction of signaling output of a mutant Ras protein relative to a wildtype, or relative to a different mutant Ras protein. For example, the equilibrium interaction of wildtype KRAS or K-Ras mutant (e.g., wildtype or a mutant thereof) with SOS1 (e.g., hSOS1) can be assessed as a proxy or an indication for the ability of a subject compound to bind and inhibit Ras protein. The HTRF assay detects from (i) a fluorescence resonance energy transfer (FRET) donor (e.g., antiGST-Europium) that is bound to GST-tagged K-Ras mutant to (ii) a FRET acceptor (e.g., anti-6His-XL665) bound to a His-tagged hSOS1.
# The assay buffer can contain ˜5 mM HEPES pH 7.4, ˜150 mM NaCl, ˜1 mM DTT, 0.05% BSA and 0.0025% (v/v) Igepal. A Ras working solution is prepared in an assay buffer containing typically a suitable amount of the protein construct (e.g., GST-tagged K-Ras mutant) and the FRET donor (e.g., antiGST-Eu (K) from Cisbio, France). A SOS1 working solution is prepared in an assay buffer containing suitable amount of the protein construct (e.g., His-hSOS1) and the FRET acceptor (e.g., anti-6His-XL665 from Cisbio, France). A suitable amount of the protein construct will depend on the range of activity or range of IC50 values being detected or under investigation. For detecting an IC50 within a range of 500 nM, the protein constructs of the same range of molarity can be utilized.
# A fixed volume of DMSO with or without test compound is transferred into a 384-well plate. Ras working solution is added to all wells of the test plate. SOS1 working solution is added to all wells except for those that are subsequently filled with inhibitor control solution. Upon incubation for about 10 minutes or longer, the fluorescence is measured with a M1000Pro plate reader (Tecan) using HTRF detection (excitation 337 nm, emission 1:620 nm, emission 2:665 nm). Compounds are tested in duplicate at different concentrations (for example, 10 μM, 2.5 μM, 0.63 μM, 0.16 μM, 0.04 μM, 0.01 μM test compound). The ratiometric data (i.e., emission 2 divided by emission 1) is used to calculate IC50 values against Ras using GraphPad Prism (GraphPad software). Signaling output measured in terms of IC50 values can be obtained and a ratio of IC50 against one mutant relative to another mutant can be calculated.
# T1 sequence (P01116 1-188 isoform P01116-2 G12D): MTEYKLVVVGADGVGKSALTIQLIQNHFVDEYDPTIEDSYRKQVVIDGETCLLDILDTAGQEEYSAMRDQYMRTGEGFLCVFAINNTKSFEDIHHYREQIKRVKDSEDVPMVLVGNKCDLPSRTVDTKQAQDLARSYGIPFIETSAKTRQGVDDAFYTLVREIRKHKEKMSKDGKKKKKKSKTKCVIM
row,SMILES,IC50 [nM]
1,"N#Cc1c(N)sc2c(F)ccc(-c3c(C(F)(F)F)c4c5c(nc(OC[C@@]67CCCN6C[C@H](F)C7)nc5c3F)N([C@@H](c3cccnc3N)C(F)F)CCO4)c12 (single isomer, unassigned) [Compound 804]",≤ 2000
2,"C[C@H](c1cccnc1N)N1CCOc2c(Cl)c(-c3ccc(F)c4sc(N)c(C#N)c34)c(F)c3nc(OCC4(CN(C)C)CC4)nc1c23 (single isomer, unassigned) [Compound 771]",≤ 2000
3,"N#Cc1c(N)sc2c(F)ccc(-c3c(C(F)(F)F)c4c5c(nc(OC[C@@]67CCCN6C[C@H](F)C7)nc5c3F)N([C@H](CCC3COCCO3)c3cccnc3N)CCO4)c12 (single isomer, unassigned) [Compound 701]",≤ 2000
4,"N#Cc1c(N)sc2c(F)ccc(-c3c(Cl)c4c5c(nc(OC[C@@]67CCCN6C[C@H](F)C7)nc5c3F)N(C(CC(F)F)c3cccnc3N)CCO4)c12 (mixture of isomers) [Compound 776, 2-amino-4-(4-(1-(2-aminopyridin-3-yl)-3,3-difluoropropyl)-8-chloro-10-fluoro-2-(((2R,7aS)-2-fluorotetrahydro-1H-pyrrolizin-7a(5H)-yl)methoxy)-5,6-dihydro-4H-[1,4]oxazepino[5,6,7-de]quinazolin-9-yl)-7-fluorobenzo[b]thiophene-3-carbonitrile]",≤ 2000
5,"N#Cc1c(N)sc2c(F)ccc(-c3c(C(F)(F)F)c4c5c(nc(OC[C@@]67CCCN6C[C@H](F)C7)nc5c3F)N([C@H](CC3CCOCC3)c3cccnc3N)CCO4)c12 (single isomer, unassigned) [Compound 824]",≤ 2000
6,"N#Cc1c(N)sc2c(F)ccc(-c3c(Cl)c4c5c(nc(OC[C@@]67CCCN6C[C@H](F)C7)nc5c3F)N(C(c3cccnc3N)C(F)F)CCO4)c12 (single isomer, unassigned) [Compound 786]",≤ 2000
7,"C[C@H](c1cccnc1N)N1CCOc2c(C(F)(F)F)c(-c3cccc4sc(N)c(C#N)c34)c(F)c3nc(OC[C@@]45CCCN4C[C@H](F)C5)nc1c23 (single isomer, unassigned) [Compound 791]",≤ 2000
8,"C#C[C@H]1COc2c(Cl)c(-c3ccc(F)c4sc(N)c(C#N)c34)c(F)c3nc(OC[C@@]45CCCN4C[C@H](F)C5)nc(c23)N1C(C)c1cccnc1N (single isomer, unassigned) [Compound 729]",≤ 2000
9,"Cc1cnc(N)c([C@@H](C)N2CCOc3c(C(F)(F)F)c(-c4ccc(F)c5sc(N)c(C#N)c45)c(F)c4nc(OC[C@@]56CCCN5C[C@H](F)C6)nc2c34)n1 (single isomer, unassigned) [Compound 767]",≤ 2000
10,"CP(C)(=O)CC[C@H](c1cccnc1N)N1CCOc2c(C(F)(F)F)c(-c3ccc(F)c4sc(N)c(C#N)c34)c(F)c3nc(OC[C@@]45CCCN4C[C@H](F)C5)nc1c23 (single isomer, unassigned) [Compound 891]",≤ 2000
11,"C[C@@H]1CN(CC2(COc3nc4c5c(c(C(F)(F)F)c(-c6ccc(F)c7sc(N)c(C#N)c67)c(F)c5n3)OCCN4[C@H](C)c3cccnc3N)CC2)C[C@H](C)O1 [Compound 886, 2-amino-4-(4-((R)-1-(2-aminopyridin-3-yl)ethyl)-2-((1-(((2S,6R)-2,6-dimethylmorpholino)methyl)cyclopropyl)methoxy)-10-fluoro-8-(trifluoromethyl)-5,6-dihydro-4H-[1,4]oxazepino[5,6,7-de]quinazolin-9-yl)-7-fluorobenzo[b]thiophene-3-carbonitrile]",≤ 2000
12,"C[C@H](c1cccnc1N)N1CCOc2c(C(F)(F)F)c(-c3ccc(F)c4sc(N)c(C#N)c34)c(F)c3nc(OC[C@@]45CCCN4CC(C#N)C5)nc1c23 (single isomer, unassigned) [Compound 754]",≤ 2000
13,"CC(c1cccnc1N)N1c2nc(OC[C@@]34CCCN3C[C@H](F)C4)nc3c(F)c(-c4ccc(F)c5sc(N)c(C#N)c45)c(Cl)c(c23)OC[C@@H]1CC#N (mixture of isomers) [Compound 716, 2-amino-4-((5S)-4-(1-(2-aminopyridin-3-yl)ethyl)-8-chloro-5-(cyanomethyl)-10-fluoro-2-(((2R,7aS)-2-fluorotetrahydro-1H-pyrrolizin-7a(5H)-yl)methoxy)-5,6-dihydro-4H-[1,4]oxazepino[5,6,7-de]quinazolin-9-yl)-7-fluorobenzo[b]thiophene-3-carbonitrile]",≤ 2000
14,"CC(c1cncnc1N)N1CCOc2c(Cl)c(-c3ccc(F)c4sc(N)c(C#N)c34)c(F)c3nc(OC[C@@]45CCCN4C[C@H](F)C5)nc1c23 (single isomer, unassigned) [Compound 699]",≤ 2000
15,"C[C@H](c1cccnc1N)N1CCOc2c(Cl)c(-c3ccc(F)c4sc(N)c(C#N)c34)c(F)c3nc(OCC45CCCN4C[C@H](OCCCP(C)(C)=O)C5)nc1c23 (single isomer, unassigned) [Compound 857]",≤ 2000
16,"CC(c1cccnc1N)N1CCOc2c(Cl)c(-c3ccc(F)c4sc(N)c(C#N)c34)c(F)c3nc(OC[C@@]45CCCN4C[C@H](F)C5)nc1c23 (single isomer, unassigned) [Compound 820]",≤ 2000
17,"C[C@H]1CN([C@@H](c2cccnc2N)C(F)F)c2nc(OC[C@@]34CCCN3C[C@H](F)C4)nc3c(F)c(-c4ccc(F)c5sc(N)c(C#N)c45)c(C(F)(F)F)c(c23)O1 (single isomer, unassigned) [Compound 889]",≤ 2000

# Next, values leading:
row,IC50 [nM],SMILES
1,≤ 2000,"C[C@H](c1ccc(F)nc1N)N1CCOc2c(C(F)(F)F)c(-c3ccc(F)c4sc(N)c(C#N)c34)c(F)c3nc(OC[C@@]45CCCN4C[C@H](F)C5)nc1c23 (single isomer, unassigned) [Compound 726]"
2,≤ 2000,"C=Cc1c(-c2ccc(F)c3sc(N)c(C#N)c23)c(F)c2nc(OC[C@@]34CCCN3C[C@H](F)C4)nc3c2c1OCCN3[C@H](C)c1cccnc1N (single isomer, unassigned) [Compound 787]"
3,≤ 2000,"CCC(c1cccnc1N)N1CCOc2c(Cl)c(-c3ccc(F)c4sc(N)c(C#N)c34)c(F)c3nc(OC[C@@]45CCCN4C[C@H](F)C5)nc1c23 (mixture of isomers) [Compound 844, 2-amino-4-(4-(1-(2-aminopyridin-3-yl)propyl)-8-chloro-10-fluoro-2-(((2R,7aS)-2-fluorotetrahydro-1H-pyrrolizin-7a(5H)-yl)methoxy)-5,6-dihydro-4H-[1,4]oxazepino[5,6,7-de]quinazolin-9-yl)-7-fluorobenzo[b]thiophene-3-carbonitrile]"
4,≤ 2000,"CO/N=C1\CN2CCC[C@@]2(COc2nc3c4c(c(Cl)c(-c5ccc(F)c6sc(N)c(C#N)c56)c(F)c4n2)OCCN3[C@H](C)c2cccnc2N)C1 (single isomer, unassigned) [Compound 898]"
5,≤ 2000,"CCO/N=C1\CN2CCC[C@@]2(COc2nc3c4c(c(Cl)c(-c5ccc(F)c6sc(N)c(C#N)c56)c(F)c4n2)OCCN3[C@H](C)c2cccnc2N)C1 (single isomer, unassigned) [Compound 865]"
6,≤ 2000,"N#Cc1c(N)sc2c(F)ccc(-c3c(C(F)(F)F)c4c5c(nc(OC[C@@]67CCCN6C[C@H](F)C7)nc5c3F)N([C@H](CCN3CCOCC3)c3cccnc3N)CCO4)c12 (single isomer, unassigned) [Compound 735]"
7,≤ 2000,"N#Cc1c(N)sc2c(F)ccc(-c3c(Cl)c4c5c(nc(OC[C@@]67CCCN6C[C@H](F)C7)nc5c3F)N(C(/C=C\C(F)(F)F)c3cccnc3N)CCO4)c12 (single isomer, unassigned) [Compound 872]"
8,≤ 2000,"N#Cc1c(N)sc2c(F)ccc(-c3c(C(F)(F)F)c4c5c(nc(OC[C@@]67CCCN6C[C@H](F)C7)nc5c3F)N([C@H](CCC3CCOCC3)c3cccnc3N)CCO4)c12 (single isomer, unassigned) [Compound 696]"
9,≤ 2000,"CS(=O)(=O)CCC[C@H](c1cccnc1N)N1CCOc2c(C(F)(F)F)c(-c3ccc(F)c4sc(N)c(C#N)c34)c(F)c3nc(OC[C@@]45CCCN4C[C@H](F)C5)nc1c23 (single isomer, unassigned) [Compound 805]"
10,≤ 2000,"N#Cc1c(N)sc2c(F)ccc(-c3c(C(F)(F)F)c4c5c(nc(OC[C@@]67CCCN6C[C@H](F)C7)nc5c3F)N([C@H](CC3CC(F)(F)C3)c3cccnc3N)CCO4)c12 (single isomer, unassigned) [Compound 703]"
11,≤ 2000,"C[C@H](c1cccnc1N)N1CCOc2c(Cl)c(-c3cccc4sc(N)c(C#N)c34)c(F)c3nc(OC[C@@]45CCCN4C[C@H](F)C5)nc1c23 (single isomer, unassigned) [Compound 823]"

# From US12668600B2 (Kumquat Biosciences Inc., priority 2023, dated 2026)
